Laboratory results published in patent US6372779B1, “Anti-inflammatory compounds” (Ortho Pharmaceutical Corporation, priority 1997, dated 2002).

Tested on: human progesterone receptor (hPR)
Assay: human progesterone receptor binding assay (displacement of 3H R5020 promegestone)
Details: not given
Protocol: A human progesterone receptor binding assay was performed in order to determine selectivity of the compounds, as follows. Human progesterone receptors were prepared from either insect cells (SF21) infected with baculovirus hPR A, or from a breast cancer cell line, T47D, which expresses high levels of endogenous hPR. The receptor binding reactions, with or without test compounds, were set up in 96-well microtiter plates which were previously siliconized with SIGMACOTE. The binding components, 3(H) R5020 Promegestone, a high affinity ligand for the progesterone receptors, glycerollmolybdate-containing buffer and unlabeled compounds were added to the wells using a combination of BIOMEK laboratory automation system and repeat pipettes. After overnight incubation, the samples were precipitated with polyethylene glycol and filtered through Whatman GF/F paper using a TOMTEK cell harvester. The filter mate with 96 samples were bound to a solid-phase scintillant and directly counted in the BETAPLATE counter. Only those compounds that were active in the human glucocorticoid receptor assay set forth in Example 30 were used for progesterone receptor binding to determine cross-reactivity profiles, if any. The activity of test compounds to displace 3(H) R5020 binding to hPR is expressed as percent inhibition at the two concentrations, 10^−6 and 10^−5 Molar.

Row | Structure (SMILES) | hPR % inh 10 μM [%]
1 | O=C(Cc1ccccc1Cl)NCC(c1ccc(I)cc1)C(c1ccccc1)c1ccccc1 (centres unmarked) [Compound 161] | 42
2 | O=C(Cc1ccc(Cl)cc1)NCC(c1ccc(I)cc1)C(c1ccccc1)c1ccccc1 (centres unmarked) [Compound 162] | 30
3 | COc1cc(CC(=O)NCC(c2ccc(I)cc2)C(c2ccccc2)c2ccccc2)cc(OC)c1 (centres unmarked) [Compound 171] | 25
4 | O=C(Cc1cc(C(F)(F)F)cc(C(F)(F)F)c1)NCC(c1ccc(C(F)(F)F)cc1)C(c1ccccc1)c1ccccc1 (centres unmarked) [Compound 151] | 41
5 | O=C(NCC(c1ccc(I)cc1)C(c1ccccc1)c1ccccc1)c1ccccc1F (centres unmarked) [Compound 175] | 65
6 | Cc1ccc(CC(=O)NCC(c2ccc(C(F)(F)F)cc2)C(c2ccccc2)c2ccccc2)cc1 (centres unmarked) [Compound 152] | 41
7 | O=C(NCC(c1ccc(I)cc1)C(c1ccccc1)c1ccccc1)c1cccs1 (centres unmarked) [Compound 179] | 53
8 | O=C(Cc1ccc2ccccc2c1)NCC(c1ccc(C(F)(F)F)cc1)C(c1ccccc1)c1ccccc1 (centres unmarked) [Compound 157] | 10
9 | O=C(Cc1ccc(Cl)c(Cl)c1)NCC(c1ccc(I)cc1)C(c1ccccc1)c1ccccc1 (centres unmarked) [Compound 163] | 44
10 | O=C(NCC(c1ccc(I)cc1)C(c1ccccc1)c1ccccc1)c1ccc(Cl)cc1 (centres unmarked) [Compound 173] | 72
11 | COc1cc(OC)cc(C(=O)NCC(c2ccc(I)cc2)C(c2ccccc2)c2ccccc2)c1 (centres unmarked) [Compound 183] | 42
12 | O=C(NCC(c1ccc(C(F)(F)F)cc1)C(c1ccccc1)c1ccccc1)c1cc(C(F)(F)F)cc(C(F)(F)F)c1 (centres unmarked) [Compound 160] | 10

Biological target: T1, human glucocorticoid receptor (hGR) (Homo sapiens, UniProt P04150)
T1 construct: made in house; host or cells: Sf21 insect cells infected with baculovirus hGR, OR IM9 lymphoblast cell line (endogenous hGR)
T1 sequence (P04150 1-777): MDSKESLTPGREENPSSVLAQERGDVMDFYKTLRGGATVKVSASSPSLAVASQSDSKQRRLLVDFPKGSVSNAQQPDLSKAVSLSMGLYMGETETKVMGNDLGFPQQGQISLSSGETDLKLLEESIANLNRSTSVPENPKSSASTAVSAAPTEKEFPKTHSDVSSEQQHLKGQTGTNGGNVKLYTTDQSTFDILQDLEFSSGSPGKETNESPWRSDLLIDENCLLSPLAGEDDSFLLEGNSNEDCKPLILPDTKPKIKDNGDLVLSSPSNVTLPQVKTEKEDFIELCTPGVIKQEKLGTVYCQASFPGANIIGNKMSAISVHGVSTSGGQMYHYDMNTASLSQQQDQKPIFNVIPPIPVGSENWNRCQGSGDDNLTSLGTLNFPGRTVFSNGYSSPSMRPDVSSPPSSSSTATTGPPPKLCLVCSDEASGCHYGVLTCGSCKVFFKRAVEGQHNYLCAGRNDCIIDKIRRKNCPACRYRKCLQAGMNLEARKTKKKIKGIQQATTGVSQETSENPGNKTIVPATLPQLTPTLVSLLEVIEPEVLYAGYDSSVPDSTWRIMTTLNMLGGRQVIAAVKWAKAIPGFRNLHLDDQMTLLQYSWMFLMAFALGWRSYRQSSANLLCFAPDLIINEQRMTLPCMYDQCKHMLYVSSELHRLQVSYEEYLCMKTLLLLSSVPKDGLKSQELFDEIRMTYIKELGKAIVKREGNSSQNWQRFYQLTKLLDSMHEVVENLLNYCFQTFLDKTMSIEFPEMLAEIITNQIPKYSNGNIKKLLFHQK
Assay: human glucocorticoid receptor binding assay (displacement of 3H triamcinolone acetonide)
Details: 1 μM
Protocol: A human glucocorticoid receptor binding assay was carried out to determine the extent to which the compounds of this invention have the ability to bind to human glucocorticoid receptors. This binding ability may be indicative of the antiinflammatory activity of the compound. The test was carried out as follows.
Human glucocorticoid receptors were prepared from either insect cells (Sf21) infected with baculovirus hGR or from a lymphoblast cell line which expresses high levels of endogenous hGR (IM9). The receptor binding reactions, with or without test compounds, were set up in 96-well microtiter plates which were previously siliconized with SIGMACOTE™, a chlorinated organopolysiloxane in heptane. The binding components, 3(H) Triamcinolone acetonide (TAA), glycerol/molybdate-containing buffer and unlabeled compounds were added to the wells using a combination of BIOMEK laboratory automation system and repeat pipettes. After four hours of incubation, the samples were precipitated with polyethylene glycol and filtered through Whatman GFIF paper using a TOMTEK cell harvester. The filter mate with 96 samples were bound to a solid-phase scintillant and directly counted in a BETAPLATE counter. […] The activity of test compounds to displace 3(H) TAA binding to hGR is also expressed as percent inhibition at 1 μM.

Row | Structure (SMILES) | hGR, value given as % (% inhibition) [%]
13 | O=C(Cc1ccccc1Cl)NCC(c1ccccc1)C1c2ccccc2-c2ccccc21 (centres unmarked) [Compound 68] | 46
14 | COc1ccccc1NC(=O)NCC(c1ccccc1)C(c1ccccc1)c1ccccc1 (centres unmarked) [Compound 51] | 32
15 | O=C(Cc1ccccc1C(F)(F)F)NCC(c1ccccc1)C1c2ccccc2-c2ccccc21 (centres unmarked) [Compound 69] | 15
16 | COc1ccccc1CC(=O)NCC(c1ccccc1)C(c1ccccc1)c1ccccc1 (centres unmarked) [Compound 5] | 62
17 | CC(C)CC(=O)NCC1(c2ccccc2)CC1(c1ccccc1)c1ccccc1 (centres unmarked) [Compound 85] | 68
18 | Cc1ccc(C(=O)NCC(c2ccccc2)C2c3ccccc3-c3ccccc32)s1 (centres unmarked) [Compound 72, N-(2-carbonyl-5-methylthiophene)-2-(9H-fluoreny-9-yl)-2-phenylethylamine] | 33
19 | O=C(NCc1ccccc1)NCC1(c2ccccc2)CC1(c1ccccc1)c1ccccc1 (centres unmarked) [Compound 95] | 4
20 | COc1ccccc1CC(=O)NCC(c1ccccc1)C1c2ccccc2-c2ccccc21 (centres unmarked) [Compound 67] | 23
21 | O=C(NCC1(c2ccccc2)CC1(c1ccccc1)c1ccccc1)Nc1ccccc1F (centres unmarked) [Compound 93] | 11
22 | COc1ccccc1CCC(=O)NCC(c1ccccc1)C1c2ccccc2-c2ccccc21 (centres unmarked) [Compound 70] | 53
23 | COc1ccccc1NC(=O)NCC1(c2ccccc2)CC1(c1ccccc1)c1ccccc1 (centres unmarked) [Compound 94] | 13
